Patent US20220401589A1, “PRE-TARGETING IMAGING AGENTS” (Eli Lilly and Company, priority 2019, published 2022)

Legend:
[1] = Reduction of tetrazine moiety by ascorbate formulation; format: physicochemical
Description: In another aspect the present embodiments provide a pharmaceutical composition comprising Compound 1 or Compound 2, or pharmaceutically acceptable salt thereof, which is formulated in ethanol (such as, for example 10% EtOH (v/v)) and buffer (which may be PBS buffer), preferably for use in humans. […] Thus, although ascorbate formulation is readily used in many formulations for imaging, it may not be suitable for imaging with the compounds of Formula I or Formula II.

[2] = Dynamic PET-CT imaging, tracer uptake in brain, muscle and bone; format: in vivo, Male CD-1 mice; conditions: for Bone Mean / Brain Mean / Muscle Mean: 60 minute PET scan
Procedure: PET-CT imaging of [^18F]—N-(4-(1,2,4,5-tetrazin-3-yl)benzyl)-4-fluorobenzamide
A Siemens Inveon® Multimodality Scanner (Siemens, Germany) is used for micro PET/CT imaging. Male CD-1 (6-week-old, ˜30 g) mice are anesthetized with 3% isoflurane/97% oxygen and placed on the bed of the scanner. The mice are administered [^18F]—N-(4-(1,2,4,5-tetrazin-3-yl)benzyl)-4-fluorobenzamide via a bolus intravenous tail vein injection (˜[…] in a total volume of 200 μL saline). A total of six (four 60 min and two 90 min) dynamic PET scans are conducted, followed by a short high-resolution CT scan for anatomical registration. PET images are generated for each minute of the acquisition time. Uptake of the tracer in the brain, muscle, and bone are determined by visually drawing regions of interest (ROIs) based on the fused PET/CT images and the corresponding activity values are determined using the Inveon® Research Workplace software. All values are represented as % injected dose per gram (% ID/g).
Bone uptake throughout the scan period remained low, consistent with an absence of defluorination for this tracer. Results of the 90 min scans are similar to the 60 min scan results with peak brain uptake observed at 3.4% ID/g at 2.5 min post injection followed by an immediate wash out to 0.6% ID/g by 59.5 min. Residual uptake is also observed throughout the body of the mouse. Time activity curves are generated for [^18F]—N-(4-(1,2,4,5-tetrazin-3-yl)benzyl)-4-fluorobenzamide in CD-1 male mice (n=4). Data is shown in graphical format in FIGS. 1A and 1B and in tabular format below.

With O=C(NCc1ccc(-c2nncnn2)cc1)c1ccc(F)cc1 [Compound 1, N-(4-(1,2,4,5-tetrazin-3-yl)benzyl)-4-fluorobenzamide] the “reduction of the tetrazine moiety” value [1] was “readily reduced”.
For O=C(NCc1ccc(-c2nncnn2)cc1)c1ccc([18F])cc1 [[^18F]—N-(4-(1,2,4,5-tetrazin-3-yl)benzyl)-4-fluorobenzamide], the “reduction of the tetrazine moiety” value [1] was “readily reduced”, the “Uptake throughout the body” value ([2]; 60-minute PET scans) was “observed throughout the body in organs such as the liver, kidneys and heart” and the “Bone Mean” value ([2]; time 2.5 min) was 1.28 % ID/g. For the same molecule, the “Brain Mean” value ([2]; time 2.5 min) was 4.06 % ID/g, the “Muscle Mean” value ([2]; time 2.5 min) was 1.14 % ID/g and the “Bone Mean” value ([2]; time 3.5 min) was 1.09 % ID/g. For the same molecule, the “Brain Mean” value ([2]; time 3.5 min) was 3.70 % ID/g, the “Muscle Mean” value ([2]; time 3.5 min) was 1.13 % ID/g and the “Bone Mean” value ([2]; time 4.5 min) was 1.04 % ID/g. The “Brain Mean” value ([2]; time 4.5 min) was 3.36 % ID/g, the “Muscle Mean” value ([2]; time 4.5 min) was 1.15 % ID/g and the “Bone Mean” value ([2]; time 5.5 min) was 1.01 % ID/g. For the same molecule, the “Brain Mean” value ([2]; time 5.5 min) was 3.20 % ID/g, the “Muscle Mean” value ([2]; time 5.5 min) was 1.17 % ID/g and the “Bone Mean” value ([2]; time 6.5 min) was 1.07 % ID/g. The “Brain Mean” value ([2]; time 6.5 min) was 3.01 % ID/g, the “Muscle Mean” value ([2]; time 6.5 min) was 1.10 % ID/g and the “Bone Mean” value ([2]; time 7.5 min) was 1.12 % ID/g. For the same molecule, the “Brain Mean” value ([2]; time 7.5 min) was 2.81 % ID/g, the “Muscle Mean” value ([2]; time 7.5 min) was 1.11 % ID/g and the “Bone Mean” value ([2]; time 8.5 min) was 1.04 % ID/g. For the same molecule, the “Brain Mean” value ([2]; time 8.5 min) was 2.62 % ID/g, the “Muscle Mean” value ([2]; time 8.5 min) was 1.15 % ID/g and the “Bone Mean” value ([2]; time 9.5 min) was 0.97 % ID/g. For the same molecule, the “Brain Mean” value ([2]; time 9.5 min) was 2.46 % ID/g, the “Muscle Mean” value ([2]; time 9.5 min) was 1.09 % ID/g and the “Bone Mean” value ([2]; time 10.5 min) was 1.03 % ID/g. The “Brain Mean” value ([2]; time 10.5 min) was 2.32 % ID/g, the “Muscle Mean” value ([2]; time 10.5 min) was 1.09 % ID/g and the “Bone Mean” value ([2]; time 11.5 min) was 1.01 % ID/g. For the same molecule, the “Brain Mean” value ([2]; time 11.5 min) was 2.17 % ID/g, the “Muscle Mean” value ([2]; time 11.5 min) was 1.08 % ID/g and the “Bone Mean” value ([2]; time 12.5 min) was 0.93 % ID/g. The “Brain Mean” value ([2]; time 12.5 min) was 2.07 % ID/g, the “Muscle Mean” value ([2]; time 12.5 min) was 1.06 % ID/g and the “Bone Mean” value ([2]; time 13.5 min) was 0.96 % ID/g. The “Brain Mean” value ([2]; time 13.5 min) was 1.97 % ID/g, the “Muscle Mean” value ([2]; time 13.5 min) was 1.06 % ID/g and the “Bone Mean” value ([2]; time 14.5 min) was 0.78 % ID/g. The “Brain Mean” value ([2]; time 14.5 min) was 1.88 % ID/g, the “Muscle Mean” value ([2]; time 14.5 min) was 1.00 % ID/g and the “Bone Mean” value ([2]; time 15.5 min) was 0.89 % ID/g. The “Brain Mean” value ([2]; time 15.5 min) was 1.79 % ID/g, the “Muscle Mean” value ([2]; time 15.5 min) was 1.02 % ID/g and the “Bone Mean” value ([2]; time 16.5 min) was 0.96 % ID/g. The “Brain Mean” value ([2]; time 16.5 min) was 1.70 % ID/g, the “Muscle Mean” value ([2]; time 16.5 min) was 1.02 % ID/g and the “Bone Mean” value ([2]; time 17.5 min) was 0.87 % ID/g. The “Brain Mean” value ([2]; time 17.5 min) was 1.64 % ID/g, the “Muscle Mean” value ([2]; time 17.5 min) was 1.03 % ID/g and the “Bone Mean” value ([2]; time 18.5 min) was 0.92 % ID/g. For the same molecule, the “Brain Mean” value ([2]; time 18.5 min) was 1.58 % ID/g, the “Muscle Mean” value ([2]; time 18.5 min) was 1.05 % ID/g and the “Bone Mean” value ([2]; time 19.5 min) was 0.93 % ID/g. For the same molecule, the “Brain Mean” value ([2]; time 19.5 min) was 1.52 % ID/g, the “Muscle Mean” value ([2]; time 19.5 min) was 0.94 % ID/g and the “Bone Mean” value ([2]; time 20.5 min) was 1.01 % ID/g. For the same molecule, the “Brain Mean” value ([2]; time 20.5 min) was 1.47 % ID/g, the “Muscle Mean” value ([2]; time 20.5 min) was 0.95 % ID/g and the “Bone Mean” value ([2]; time 21.5 min) was 0.88 % ID/g. For the same molecule, the “Brain Mean” value ([2]; time 21.5 min) was 1.42 % ID/g, the “Muscle Mean” value ([2]; time 21.5 min) was 1.06 % ID/g and the “Bone Mean” value ([2]; time 22.5 min) was 0.99 % ID/g. For the same molecule, the “Brain Mean” value ([2]; time 22.5 min) was 1.38 % ID/g, the “Muscle Mean” value ([2]; time 22.5 min) was 1.04 % ID/g and the “Bone Mean” value ([2]; time 23.5 min) was 0.85 % ID/g. For the same molecule, the “Brain Mean” value ([2]; time 23.5 min) was 1.33 % ID/g, the “Muscle Mean” value ([2]; time 23.5 min) was 0.92 % ID/g and the “Bone Mean” value ([2]; time 24.5 min) was 0.88 % ID/g. The “Brain Mean” value ([2]; time 24.5 min) was 1.29 % ID/g, the “Muscle Mean” value ([2]; time 24.5 min) was 0.96 % ID/g and the “Bone Mean” value ([2]; time 25.5 min) was 1.02 % ID/g. For the same molecule, the “Brain Mean” value ([2]; time 25.5 min) was 1.26 % ID/g, the “Muscle Mean” value ([2]; time 25.5 min) was 0.97 % ID/g and the “Bone Mean” value ([2]; time 26.5 min) was 0.88 % ID/g. For the same molecule, the “Brain Mean” value ([2]; time 26.5 min) was 1.23 % ID/g, the “Muscle Mean” value ([2]; time 26.5 min) was 0.92 % ID/g and the “Bone Mean” value ([2]; time 27.5 min) was 0.83 % ID/g. The “Brain Mean” value ([2]; time 27.5 min) was 1.18 % ID/g, the “Muscle Mean” value ([2]; time 27.5 min) was 0.89 % ID/g and the “Bone Mean” value ([2]; time 28.5 min) was 0.92 % ID/g. The “Brain Mean” value ([2]; time 28.5 min) was 1.17 % ID/g, the “Muscle Mean” value ([2]; time 28.5 min) was 0.91 % ID/g and the “Bone Mean” value ([2]; time 29.5 min) was 0.93 % ID/g. The “Brain Mean” value ([2]; time 29.5 min) was 1.14 % ID/g, the “Muscle Mean” value ([2]; time 29.5 min) was 0.94 % ID/g and the “Bone Mean” value ([2]; time 30.5 min) was 0.92 % ID/g. The “Brain Mean” value ([2]; time 30.5 min) was 1.11 % ID/g, the “Muscle Mean” value ([2]; time 30.5 min) was 0.93 % ID/g and the “Bone Mean” value ([2]; time 31.5 min) was 0.96 % ID/g. For the same molecule, the “Brain Mean” value ([2]; time 31.5 min) was 1.09 % ID/g, the “Muscle Mean” value ([2]; time 31.5 min) was 0.99 % ID/g and the “Bone Mean” value ([2]; time 32.5 min) was 0.85 % ID/g. For the same molecule, the “Brain Mean” value ([2]; time 32.5 min) was 1.07 % ID/g, the “Muscle Mean” value ([2]; time 32.5 min) was 0.89 % ID/g and the “Bone Mean” value ([2]; time 33.5 min) was 0.95 % ID/g. The “Brain Mean” value ([2]; time 33.5 min) was 1.04 % ID/g, the “Muscle Mean” value ([2]; time 33.5 min) was 0.93 % ID/g and the “Brain Mean” value ([2]; time 34.5 min) was 1.04 % ID/g. The peak brain uptake ([2]; 90 min scans, 2.5 min post injection) was 3.4 % ID/g, the “brain uptake after wash out” value ([2]; 90 min scans, by 59.5 min) was 0.6 % ID/g and the peak brain uptake ([2]; WT mice, approximately 2.5 min post injection) was 4.1±0.3 % ID/g. For the same molecule, the “brain uptake after steady clearance of tracer” value ([2]; WT mice, by 60 minutes) was 0.8±0.1 % ID/g, the “Bone uptake throughout the scan period” value ([2]; consistent with an absence of defluorination) was “remained low” and the “crossing of the blood-brain-barrier” value ([2]; dynamic PET imaging in mice) was “readily crosses the blood-brain-barrier”. For the same molecule, the peak brain uptake ([2]; four 60-minute PET scans, 2.5 min post injection) was 4.1 % ID/g and the “brain uptake after steady clearance of tracer” value ([2]; four 60-minute PET scans, at 59.5 min) was 0.8 % ID/g.
